Reference: patent publication US12338256B2, “Aza-tetracyclic oxazepine compounds and uses thereof” (Genentech, Inc., priority 2022, dated 2025)

What was measured:
KRAS G12D = KRAS G12D (Homo sapiens, UniProt P01116, G12D); test: KRAS G12D LoEnz Biochemical Assay, BODIPY-GDP Exchange TR-FRET (Example 500); conditions: BODIPY-GDP exchange, read-out: KRas (G12D) GDP HTRF IC50
Protocol: Example 500: KRAS G12D LoEnz Biochemical Assay, BODIPY-GDP Exchange TR-FRET. Biochemical compound potencies are assessed by evaluating inhibition of SOS1-mediated nucleotide exchange in KRAS G12D. In this assay, the SOS1-promoted exchange of fluorescently-labeled GDP (BOPIDY-GDP) is monitored by time-resolved fluorescence resonance energy transfer (TR-FRET). Compounds solubilized in DMSO are dispensed as concentration series into 384-well white assay plates. A preformed complex of biotin-tagged recombinant human KRAS (0.06 nM mutant G12D) and 0.06 nM terbium-labeled streptavidin (CisBIO) prepared in 10 uL/well assay buffer (20 mM HEPES, pH 7.5, 50 mM NaCl, 10 mM MgCl2, 0.01% Tween-20 and 1 mM dithiothreitol) is added and allowed to incubate for 10-minutes at room temperature. The reaction is initiated with the addition of 5 uL 300 nM recombinant human SOS1 and 300 nM BODIPY-GDP in assay buffer. After a 120-minute incubation, the fluorescence is measured with excitation at 337 nm and emission at 490 and 520 nm. The TR-FRET ratio is determined as the fluorescence at 520 nm divided by the fluorescence at 490 nm multiplied by 10,000. The results are normalized to percent inhibition based on control samples: DMSO (0% inhibition) and control compound at a concentration that inhibits completely (100% inhibition). The normalized TR-FRET results are plotted against compound concentration, and the data are fit to a 4-parameter Hill equation to determine the IC50 values.

[1] = system: HPAC (homozygous mutant KRAS G12D human pancreatic cell line); test: KRAS 3D-Cell Proliferation Assay, HPAC (Example 503); format: cell-based; conditions: Homo sapiens, HPAC, 168 h, HPAC 3D culture, 7 days, CellTiter-Glo 3D; read-out: Prolif HPAC 3D ATP IC50
Summary of the method: (§1)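 IC50 values derive from 4-parameter Hill fits of normalized luminescence, where DMSO sets 0% and 1 μM staurosporine 100% inhibition. 3D cultures in RPMI-1640 with 10% fetal bovine serum were exposed to compound for 7 days before CellTiter-Glo 3D lysis.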

[2] = system: AsPC-1 (homozygous mutant KRAS G12D human pancreatic cell line); test: KRAS 3D-Cell Proliferation Assay, AsPC-1 (Example 503); format: cell-based; conditions: Homo sapiens, ASPC1, 168 h, AsPC-1 3D culture, 7 days, CellTiter-Glo 3D; read-out: Prolif AsPC-1 3D ATP IC50
Summary of the method: as §1

[3] = system: H1975 (KRAS wild type human lung adenocarcinoma cell line); test: KRAS 3D-Cell Proliferation Assay, H1975 (Example 503); format: cell-based; conditions: Homo sapiens, NCI-H1975, 168 h, H1975 3D culture, 7 days, CellTiter-Glo 3D; read-out: Prolif H1975 3D ATP IC50
Summary of the method: as §1

[4] = system: PC-9 (KRAS wild type human lung adenocarcinoma cell line); test: KRAS 3D-Cell Proliferation Assay, PC-9 (Example 503); format: cell-based; conditions: 168 h, PC-9 3D culture, 7 days, CellTiter-Glo 3D, read-out: Prolif PC9 3D ATP IC50
Summary of the method: as §1

KRAS G12D, sequence (P01116 1-188 isoform P01116-2 G12D): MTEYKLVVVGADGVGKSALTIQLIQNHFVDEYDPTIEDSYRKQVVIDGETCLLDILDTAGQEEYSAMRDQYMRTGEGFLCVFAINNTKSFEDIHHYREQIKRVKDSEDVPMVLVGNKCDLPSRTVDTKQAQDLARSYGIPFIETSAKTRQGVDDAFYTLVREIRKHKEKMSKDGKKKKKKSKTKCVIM

Compound	IC50 (KRAS G12D) [nM]	IC50 [1] [nM]	IC50 [2] [nM]	IC50 [3] [nM]	IC50 [4] [nM]
Cc1c(F)c(N)cc(-c2nc3c4c(nc(OC[C@]5(CN6CC7(COC7)C6)CC5(F)F)nc4c2F)N2C[C@H]4CC[C@H](N4)[C@H]2[C@H](C)O3)c1C(F)(F)F (single isomer, unassigned) [165 b]	0.1				
C[C@@H]1Oc2nc(-c3cncc4cccc(Cl)c34)c(F)c3nc(OC[C@@]45CCCN4C[C@H](F)C5)nc(c23)N2C[C@H]3CC[C@H](N3)[C@@H]12 [Compound 38, (5S,5aS,6S,9R)-2-(5-Chloroisoquinolin-4-yl)-1-fluoro-12-(((2R,7aS)-2-fluorotetrahydro-1H-pyrrolizin-7a(5H)-yl)methoxy)-5-methyl-5a,6,7,8,9,10-hexahydro-5H-4-oxa-3,10a,11,13,14-pentaaza-6,9-methanonaphtho[1,8-ab]heptalene]		96.1	270	2830	7380
C=C1CN2CCC[C@@]2(COc2nc3c4c(nc(-c5cc(O)cc6cccc(CC)c56)c(F)c4n2)O[C@@H](C)[C@@H]2[C@@H]4CC[C@H](CN32)N4)C1 [Compound 80, 5-Ethyl-4-((5S,5aS,6S,9R)-1-fluoro-5-methyl-12-(((S)-2-methylenetetrahydro-1H-pyrrolizin-7a(5H)-yl)methoxy)-5a,6,7,8,9,10-hexahydro-5H-4-oxa-3,10a,11,13,14-pentaaza-6,9-methanonaphtho[1,8-ab]heptalen-2-yl)naphthalen-2-ol]		2.76	5.08	924	4050
CCc1cccc2cc(O)cc(-c3nc4c5c(nc(OC[C@@]67CCCN6C[C@H](F)C7)nc5c3F)N3C[C@H]5CC[C@H](N5)[C@H]3[C@H](C)O4)c12 [Compound 10, 5-ethyl-4-((5S,5aS,6S,9R)-1-fluoro-12-(((2R,7aS)-2-fluorotetrahydro-1H-pyrrolizin-7a(5H)-yl)methoxy)-5-methyl-5a,6,7,8,9,10-hexahydro-5H-4-oxa-3,10a,11,13,14-pentaaza-6,9-methanonaphtho[1,8-ab]heptalen-2-yl)naphthalen-2-ol]		5.96	4.93	2270	6670
C[C@@H]1Oc2nc(-c3cccc4cccc(Cl)c34)c(F)c3nc(OC[C@@]45CCCN4C[C@H](F)C5)nc(c23)N2C[C@H]3CC[C@H](N3)[C@@H]12 [Compound 8, (5S,5aS,6S,9R)-2-(8-chloronaphthalen-1-yl)-1-fluoro-12-(((2R,7aS)-2-fluorotetrahydro-1H-pyrrolizin-7a(5H)-yl)methoxy)-5-methyl-5a,6,7,8,9,10-hexahydro-5H-4-oxa-3,10a,11,13,14-pentaaza-6,9-methanonaphtho[1,8-ab]heptalene]		87.3	72	4310	3920
Cc1cc(N)nc(-c2nc3c4c(nc(OC[C@@]56CCCN5C[C@H](F)C6)nc4c2F)N2C[C@H]4CC[C@H](N4)[C@H]2[C@H](C)O3)c1C(F)(F)F [Compound 43, 6-((5S,5aS,6S,9R)-1-Fluoro-12-(((2R,7aS)-2-fluorotetrahydro-1H-pyrrolizin-7a(5H)-yl)methoxy)-5-methyl-5a,6,7,8,9,10-hexahydro-5H-4-oxa-3,10a,11,13,14-pentaaza-6,9-methanonaphtho[1,8-ab]heptalen-2-yl)-4-methyl-5-(trifluoromethyl)pyridin-2-amine]		16.8	43.4	4290	≥ 20000
C#Cc1cccc2cncc(-c3nc4c5c(nc(OC[C@@]67CCCN6C[C@H](F)C7)nc5c3F)N3C[C@H]5CC[C@H](N5)[C@H]3[C@H](C)O4)c12 [Compound 39, (5S,5aS,6S,9R)-2-(5-Ethynylisoquinolin-4-yl)-1-fluoro-12-(((2R,7aS)-2-fluorotetrahydro-1H-pyrrolizin-7a(5H)-yl)methoxy)-5-methyl-5a,6,7,8,9,10-hexahydro-5H-4-oxa-3,10a,11,13,14-pentaaza-6,9-methanonaphtho[1,8-ab]heptalene]		35.8	55.8	3970	≥ 20000
Cc1c(F)c(N)cc(-c2nc3c4c(nc(OC[C@@H]5C[C@@H](F)CN5C)nc4c2F)N2C[C@H]4CC[C@H](N4)[C@H]2[C@H](C)O3)c1C(F)(F)F [Compound 26, 2-Fluoro-5-((5S,5aS,6S,9R)-1-fluoro-12-(((2S,4R)-4-fluoro-1-methylpyrrolidin-2-yl)methoxy)-5-methyl-5a,6,7,8,9,10-hexahydro-5H-4-oxa-3,10a,11,13,14-pentaaza-6,9-methanonaphtho[1,8-ab]heptalen-2-yl)-3-methyl-4-(trifluoromethyl)aniline]		3.24	5.19	1540	7640
Cc1c(F)c(N)cc(-c2nc3c4c(nc(OC[C@@]56CCCN5C[C@H](F)C6)nc4c2F)N2C[C@H]4CC[C@H](N4)[C@H]2[C@H](C)O3)c1C(F)(F)F [Compound 6, 2-Fluoro-5-((5S,5aS,6S,9R)-1-fluoro-12-(((2R,7aS)-2-fluorotetrahydro-1H-pyrrolizin-7a(5H)-yl)methoxy)-5-methyl-5a,6,7,8,9,10-hexahydro-5H-4-oxa-3,10a,11,13,14-pentaaza-6,9-methanonaphtho[1,8-ab]heptalen-2-yl)-3-methyl-4-(trifluoromethyl)aniline]		0.247	0.561	692	4210
C#Cc1cccc2cc(O)cc(-c3nc4c5c(nc(OC[C@@]67CCCN6C[C@H](F)C7)nc5c3F)N3C[C@H]5CC[C@H](N5)[C@H]3CO4)c12 [Compound 3, 5-ethynyl-4-((5aS,6S,9R)-1-fluoro-12-(((2R,7aS)-2-fluorotetrahydro-1H-pyrrolizin-7a(5H)-yl)methoxy)-5a,6,7,8,9,10-hexahydro-5H-4-oxa-3,10a,11,13,14-pentaaza-6,9-methanonaphtho[1,8-ab]heptalen-2-yl)naphthalen-2-ol]		11.2	6.72	202	≥ 20000
Cc1c(F)c(N)cc(-c2nc3c4c(nc(OC[C@@H]5CC(F)(F)CN5C)nc4c2F)N2C[C@H]4CC[C@H](N4)[C@H]2[C@H](C)O3)c1C(F)(F)F [Compound 65, 5-((5S,5aS,6S,9R)-12-(((S)-4,4-Difluoro-1-methylpyrrolidin-2-yl)methoxy)-1-fluoro-5-methyl-5a,6,7,8,9,10-hexahydro-5H-4-oxa-3,10a,11,13,14-pentaaza-6,9-methanonaphtho[1,8-ab]heptalen-2-yl)-2-fluoro-3-methyl-4-(trifluoromethyl)aniline]		19.6	64.3	7960	7530
Cc1cc(-c2nc3c4c(nc(OC[C@@]56CCCN5C[C@H](F)C6)nc4c2F)N2C[C@H]4CC[C@H](N4)[C@H]2[C@H](C)O3)c(F)c(N)c1F [Compound 18, 2,6-difluoro-3-((5S,5aS,6S,9R)-1-fluoro-12-(((2R,7aS)-2-fluorotetrahydro-1H-pyrrolizin-7a(5H)-yl)methoxy)-5-methyl-5a,6,7,8,9,10-hexahydro-5H-4-oxa-3,10a,11,13,14-pentaaza-6,9-methanonaphtho[1,8-ab]heptalen-2-yl)-5-methylaniline]		5220	5590	20000	7910
C[C@@H]1Oc2nc(-c3cc(N)c(F)cc3C(F)(F)F)c(F)c3nc(OC[C@@]45CCCN4C[C@H](F)C5)nc(c23)N2C[C@H]3CC[C@H](N3)[C@@H]12 [Compound 14, 2-fluoro-5-((5S,5aS,6S,9R)-1-fluoro-12-(((2R,7aS)-2-fluorotetrahydro-1H-pyrrolizin-7a(5H)-yl)methoxy)-5-methyl-5a,6,7,8,9,10-hexahydro-5H-4-oxa-3,10a,11,13,14-pentaaza-6,9-methanonaphtho[1,8-ab]heptalen-2-yl)-4-(trifluoromethyl)aniline]		11.3	5.62	2510	6210
